# According to US20220142977A1, “METHODS OF TREATING CONDITIONS RELATED TO THE S1P1 RECEPTOR” (ARENA PHARMACEUTICALS, INC., priority 2019, published 2022):
# Where a name gives a salt, the structure may show the parent alone.
# Experiments:
# [1] = system: patients with moderate to severe ulcerative colitis; assay: Randomized, double-blind, placebo-controlled dose-ranging study in ulcerative colitis: efficacy (Mayo scores, endoscopic improvement, remission); type: in vivo, human; conditions: for improvement in 2-component Mayo Score (0 to 6) relative to placebo / improvement in Total Mayo Score (0 to 12) relative to placebo: Week 12
# Protocol: A randomized, double-blind, placebo-controlled, parallel-group, dose-ranging study to assess safety and efficacy of two orally administered doses (1 mg and 2 mg) of Compound 1 in patients with ulcerative colitis was conducted. The table below provides a summary of demographic data by treatment group.
# Patients were randomized into a double-blind, placebo-controlled study to receive once daily (q.d.) doses of the L-arginine salt of Compound 1 (1 mg or 2 mg) or matching placebo in a 1:1:1 ratio for 12 weeks. The trial enrolled 156 patients with moderate to severe ulcerative colitis (3-component Mayo score of 4-9 that includes endoscopic subscore ≥2, rectal bleeding score ≥1).
# The treatment formulation was composed of immediate-release, hard gelatin capsules containing L-arginine salt of Compound 1. The placebo was composed of hard gelatin capsules containing microcrystalline cellulose.
# Patients were instructed to take their capsule on an empty stomach (overnight fast of approximately 8 hours) and to avoid eating for approximately 1 hour after dosing.
# The primary objective of this proof-of-concept study was to determine the effect of treatment with the L-arginine salt of Compound 1 in changing 3-component Mayo Clinic score (score ranging from 0 to 9, including stool frequency, rectal bleeding and findings on endoscopy) at 12 weeks.
# Secondary endpoints were the proportion of patients who achieve endoscopic improvement at Week 12; change in 2-component Mayo Score (score ranging from 0 to 6, including rectal bleeding and findings on endoscopy) at Week 12; and change in Total Mayo Score (score ranging from 0 to 12, including stool frequency, rectal bleeding, findings on endoscopy, and physician global assessment) at Week 12.
# Exploratory endpoints included change from baseline in lymphocyte counts at Weeks 1, 2, 4, 8, and 12; proportion of patients achieving clinical remission at Week 12; and proportion of patients who achieve clinical response at Week 12.
# ANCOVA model, adjusted for current oral corticosteroid use, prior exposure to TNF-alpha antagonists, and baseline value, was used to estimate changes in Mayo Clinic Score. Mantel-Haenszel method (estimated treatment difference by adjusting current oral corticosteroid use and prior exposure to TNF-alpha antagonists) used to estimate proportion difference for dichotomous parameters. Missing individual Mayo subscores impacting efficacy measures were imputed using multiple imputation methodology with observed case analysis for sensitivity. Statistical testing was pre-specified as one-sided with p<0.025 reflecting conventional statistical significance. Hierarchical closed testing procedure for primary and secondary endpoints at 0.05 alpha level was used.
# [2] = system: patients with moderate to severe ulcerative colitis; assay: Same study: safety and tolerability (TEAEs, heart rate, AV conduction, LFTs, infections); type: in vivo, human
Structure (SMILES),"improvement in individuals with prior vedolizumab use or a history of pancolitis (subgroup analyses) ([1]; subgroups, 2 mg, week 12 (FIGS. 3A-3D))","improvement in 3-component Partial Mayo Score (0 to 9) relative to placebo ([1]; 1 mg q.d. oral, week 12, p=0.146, not significant)","improvement in 2-component Mayo Score (0 to 6) relative to placebo ([1]; 1 mg, p=0.086, not significant)","improvement in Total Mayo Score (0 to 12) relative to placebo ([1]; 1 mg, p=0.128, not significant)","improvement in 3-component Partial Mayo Score (0 to 9) relative to placebo ([1]; 2 mg q.d. oral, week 12, p=0.009)","improvement in Total Mayo Score (0 to 12) relative to placebo ([1]; 2 mg, p=0.010)","improvement in 2-component Mayo Score (0 to 6) relative to placebo ([1]; dose not printed (2 mg implied), p=0.002)","primary and all secondary endpoints ([1]; high dose (2 mg), week 12)","serious adverse events (SAEs), % of patients ([2]; 2 mg, placebo 11.1%)","heart rate on hourly ECGs (in words) ([2]; Day 1, both 1 mg and 2 mg groups)","mean change in heart rate on hourly ECGs ([2]; Day 1, either group (1 mg, 2 mg), any timepoint)","severity of adverse events in infections and infestations ([2]; assessed by investigators, majority upper respiratory tract infections)",increases in liver function tests (LFTs) compared to placebo ([2]; in vivo),reports of macular edema ([2]; in vivo),reports of pulmonary function test abnormalities ([2]; in vivo),serious adverse events related to heart rate changes or AV block ([2]; in vivo),discontinuations from study related to bradycardia or AV block ([2]; throughout the study),impact on heart rate and AV conduction ([2]; throughout the study)
"O=C(O)C[C@H]1CCc2c1[nH]c1ccc(OCc3ccc(C4CCCC4)c(C(F)(F)F)c3)cc21 [Compound 1, (R)-2-(7-(4-cyclopentyl-3-(trifluoromethyl)benzyloxy)-1,2,3,4-tetrahydrocyclopenta[b]indol-3-yl)acetic acid]",improvement is not seen,,,,,,,,,,,,,,,,,
O=C(O)C[C@H]1CCc2c1[nH]c1ccc(OCc3ccc(C4CCCC4)c(C(F)(F)F)c3)cc21 [L-arginine salt of Compound 1],,0.43,0.39,0.60,0.99,1.27,0.84,achieved the primary and all secondary endpoints with statistical significance,0%,mild decrease,< 10 bpm,mild or moderate,no increases,no reports,no reports,No serious adverse events,no discontinuations,low
